The values below come from patent EP4722201A1, “3-PHENYLISOXAZOLINE-5-CARBOXAMIDE COMPOUND, AND PREPARATION METHOD THEREFOR, HERBICIDAL COMPOSITION THEREOF AND USE THEREOF” (Jiangsu Flag Chemical Industry Co., Ltd, priority 2023, dated 2024).

Where only a bound is given, the exact number is not on record here.

Holding throughout (format): in vivo
Assay [1] concerns Cyperus iria. The assay can be described thus: Indoor herbicide activity determination, post-emergence (stem and leaf spray at 2-4 leaf stage). As to conditions: 504 h, 30 g a.i./ha, determined 21 days later, read-out: Inhibition rate of fresh weight, Cyperus iria. The text has this:
(§1) The testing method for herbicide activity of the compound of the present invention was as follows:
(§2) Post-emergence: an appropriate quantity of seeds of gramineous weeds (Echinochloa crusgalli, Eleusine indica, Digitaria sanguinalis, Alopecurus japonicus, Beckmannia syzigachne, Leptochloa chinensis, Polypogon fugax, Alopecurus aequalis, Lolium multiflorum, Poa annua, Aegilops tauschii, Avena fatua, Alopecurus myosuroides, Alopecurus japonicus and Alopecurus aequalis), broad-leaved weeds (Eclipta prostrata, Amaranthus retroflexus, Rorippa indica, Malachium aquaticum, Veronica polita, Conyza canadensis, Sesbania cannabina, Sagittariatrifolia and Schoenoplectiella juncoides), and Cyperus iria were sown in plastic pots having a diameter of 7 cm and holes at the bottom and filled with nutrient soil (sandy soil, pH 6.1, organic matter 1%) respectively, the seeds were covered with an appropriate amount of soil after being sown, then the soil was wetted with water from the bottom, the seeds were cultured in a constant-temperature illuminated culture room until a 2-4 leaf stage, and stems and leaves underwent spray treatment. After the treatment, the test materials were placed in a laboratory and cultured in the constant-temperature illuminated culture room after the liquid was naturally dry in the shade, and results were determined 21 days later. Inhibition rate of fresh weight % = (1−(fresh weight of treated plants)/(fresh weight of control plants)) × 100% [formula]

Assay [2] has as its system Digitaria sanguinalis. The assay is described as above. As to conditions: 504 h, 30 g a.i./ha, determined 21 days later, read-out: Inhibition rate of fresh weight, Digitaria sanguinalis.
Text: as §1, §2

Assay [3] concerns Aegilops tauschii. In words: Indoor herbicide activity determination, Seed Treatment; pre-emergence (soil spray). As to conditions: read-out: Herbicidal activities (inhibition rate) Aegilops tauschii; for inhibition at 60 g/ha: 60 g a.i./ha; for inhibition at 120 g/ha: 120 g a.i./ha. In a few lines: (§3)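 Readout is percent inhibition of fresh weight relative to control plants, determined 21 days after treatment. Soil was sprayed one day after sowing, in a spray tower at 300 mm height and 390 mL/min nozzle flow, onto sandy soil of pH 6.1 with 1% organic matter.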

Assay [4] concerns Alopecurus japonicus. The description is as above. In a few lines: as §3
The subject of assay [5] is Cyperus iria. Described as above. The following applies: read-out: Herbicidal activities (inhibition rate) Cyperus iria; for inhibition at 60 g/ha: 60 g a.i./ha; for inhibition at 120 g/ha: 120 g a.i./ha. In a few lines: as §3
Assay [6] has as its system Digitaria sanguinalis. The description is as above. The following applies: read-out: Herbicidal activities (inhibition rate) Digitaria sanguinalis; for inhibition at 60 g/ha: 60 g a.i./ha; for inhibition at 120 g/ha: 120 g a.i./ha. The essentials:
as §3

The test system of assay [7] is Eclipta prostrata. Described as above. The following applies: read-out: Herbicidal activities (inhibition rate) Eclipta prostrata; for inhibition at 60 g/ha: 60 g a.i./ha; for inhibition at 120 g/ha: 120 g a.i./ha. The essentials:
as §3

For assay [8], the system named is Eleusine indica. Described as above. In a few lines:
as §3

Assay [9] deals with Leptochloa chinensis. Described as above. In a few lines: as §3
Assay [10] deals with Alopecurus myosuroides. The description is as above. In a few lines:
as §3

The subject of assay [11] is Lolium multiflorum. The description is as above. In a few lines: as §3
The subject of assay [12] is Eclipta prostrata. In words: Indoor herbicide activity determination, post-emergence (stem and leaf spray at 2-4 leaf stage). The following applies: 504 h, 30 g a.i./ha, determined 21 days later, read-out: Inhibition rate of fresh weight, Eclipta prostrata.
Text: as §1, §2

Regarding `C=C[C@]1(C(=O)N[C@H]2C=C[C@@H](C(=O)OC)C2)CC(c2cc(Cl)cc(C(F)(F)F)c2)=NO1` [I-477], the figures for the inhibition at 30 g/ha in assay [1] and in [2] were 80 to 100% and 60 to 80%, respectively. Also, the inhibition (in general, the drop in the measured response relative to a control, in per cent) at 60 g/ha lay within 80 to 100% in [3], 60 to 80% in assay [5], 60 to 80% in assay [6] and 40 to 60% in assay [7]. The “Herbicidal activity (inhibition rate class), Alopecurus japonicus” value in assay [4] (Dosage 120 g a.i./ha) is recorded as “B (B indicates that the inhibition rate was greater than or equal to 60% to less than 80%)”. Further, the “Herbicidal activity (inhibition rate class), Eleusine indica” value in assay [8] (Dosage 120 g a.i./ha) is “A (A indicates that the inhibition rate was greater than or equal to 80% to 100%)”. Also, in assay [9] (Dosage 120 g a.i./ha), the “Herbicidal activity (inhibition rate class), Leptochloa chinensis” value was “A (A indicates that the inhibition rate was greater than or equal to 80% to 100%)”.
Consider `C=CC1(C(=O)N[C@H]2CO[C@@H](C(=O)OC)C2)CC(c2cc(F)cc(OC(F)F)c2)=NO1` (mixture of isomers) [I-370], for which the inhibition at 120 g/ha lay in the range of 80 to 100% in assay [3], 80 to 100% in assay [5], 60 to 80% in assay [6] and 60 to 80% in [7]. In assay [4] (Dosage 240 g a.i./ha), the “Herbicidal activities, Alopecurus japonicus (inhibition rate class)” value is listed as “A (A indicates that the inhibition rate was greater than or equal to 80% to 100%)”. For the same compound, the “Herbicidal activities, Alopecurus myosuroides (inhibition rate class)” value in assay [10] (Dosage 240 g a.i./ha) is recorded as “A (A indicates that the inhibition rate was greater than or equal to 80% to 100%)”. Moreover, in assay [8] (Dosage 240 g a.i./ha), the “Herbicidal activities, Eleusine indica (inhibition rate class)” value is recorded as “A (A indicates that the inhibition rate was greater than or equal to 80% to 100%)”. Also, the “Herbicidal activities, Leptochloa chinensis (inhibition rate class)” value in [9] (Dosage 240 g a.i./ha) is given as “A (A indicates that the inhibition rate was greater than or equal to 80% to 100%)”. Further, in [11] (Dosage 240 g a.i./ha), the “Herbicidal activities, Lolium multiflorum (inhibition rate class)” value is on record as “A (A indicates that the inhibition rate was greater than or equal to 80% to 100%)”.
Turning to `CC1(C(=O)N[C@H]2C=C[C@@H](C(=O)O)C2)CC(c2cc(F)cc(C(F)(F)F)c2)=NO1` (stereo partly drawn) [I-493], the inhibition at 120 g/ha in [3] is 80 to 100%; in assay [5], 80 to 100%; in assay [6] it was 60 to 80%; in assay [7], 60 to 80%. The “Herbicidal activity (inhibition rate class), Alopecurus japonicus” value in [4] (Dosage 240 g a.i./ha) is “A (A indicates that the inhibition rate was greater than or equal to 80% to 100%)”. In addition, the “Herbicidal activity (inhibition rate class), Alopecurus myosuroides” value in assay [10] (Dosage 240 g a.i./ha) is “A (A indicates that the inhibition rate was greater than or equal to 80% to 100%)”. Moreover, the “Herbicidal activity (inhibition rate class), Eleusine indica” value in assay [8] (Dosage 240 g a.i./ha) was “A (A indicates that the inhibition rate was greater than or equal to 80% to 100%)”. For the same compound, the “Herbicidal activity (inhibition rate class), Leptochloa chinensis” value in [9] (Dosage 240 g a.i./ha) is on record as “A (A indicates that the inhibition rate was greater than or equal to 80% to 100%)”. The “Herbicidal activity (inhibition rate class), Lolium multiflorum” value in assay [11] (Dosage 240 g a.i./ha) is on record as “A (A indicates that the inhibition rate was greater than or equal to 80% to 100%)”.
Consider `CSCCOC(=O)[C@@H]1C=C[C@H](NC(=O)C2(C)CC(c3cc(F)cc(OC(F)(F)F)c3)=NO2)C1` (stereo partly drawn) [I-490], for which the inhibition at 120 g/ha in assay [3], in assay [5], in [6] and in [7] was 80 to 100% each time. Further, the “Herbicidal activity (inhibition rate class), Alopecurus japonicus” value in assay [4] (Dosage 240 g a.i./ha) was “A (A indicates that the inhibition rate was greater than or equal to 80% to 100%)”. Further, in assay [10] (Dosage 240 g a.i./ha), the “Herbicidal activity (inhibition rate class), Alopecurus myosuroides” value was “A (A indicates that the inhibition rate was greater than or equal to 80% to 100%)”. Moreover, in [8] (Dosage 240 g a.i./ha), the “Herbicidal activity (inhibition rate class), Eleusine indica” value is reported as “A (A indicates that the inhibition rate was greater than or equal to 80% to 100%)”. In assay [9] (Dosage 240 g a.i./ha), the “Herbicidal activity (inhibition rate class), Leptochloa chinensis” value was “A (A indicates that the inhibition rate was greater than or equal to 80% to 100%)”. The “Herbicidal activity (inhibition rate class), Lolium multiflorum” value in [11] (Dosage 240 g a.i./ha) is “A (A indicates that the inhibition rate was greater than or equal to 80% to 100%)”.
For the compound `C=CC1(C(=O)N[C@H]2CO[C@@H](C(=O)OC)C2)CC(c2cc(Cl)cc(OC(F)(F)F)c2)=NO1` (mixture of isomers) [I-372], the inhibition at 120 g/ha in [3], in assay [5], in [6] and in assay [7] was 80 to 100% each time. The “Herbicidal activities, Alopecurus japonicus (inhibition rate class)” value in assay [4] (Dosage 240 g a.i./ha) was “A (A indicates that the inhibition rate was greater than or equal to 80% to 100%)”. Moreover, in [10] (Dosage 240 g a.i./ha), the “Herbicidal activities, Alopecurus myosuroides (inhibition rate class)” value is on record as “A (A indicates that the inhibition rate was greater than or equal to 80% to 100%)”. In addition, the “Herbicidal activities, Eleusine indica (inhibition rate class)” value in assay [8] (Dosage 240 g a.i./ha) is reported as “A (A indicates that the inhibition rate was greater than or equal to 80% to 100%)”. For the same compound, in [9] (Dosage 240 g a.i./ha), the “Herbicidal activities, Leptochloa chinensis (inhibition rate class)” value is on record as “A (A indicates that the inhibition rate was greater than or equal to 80% to 100%)”. In addition, in [11] (Dosage 240 g a.i./ha), the “Herbicidal activities, Lolium multiflorum (inhibition rate class)” value is listed as “A (A indicates that the inhibition rate was greater than or equal to 80% to 100%)”.
Regarding `C=C[C@]1(C(=O)N[C@H]2C=C[C@@H](C(=O)OCC)C2)CC(c2cc(F)cc(C(F)(F)F)c2)=NO1` [I-429], the inhibition at 60 g/ha in assay [3], in assay [5], in assay [6] and in assay [7] was 60 to 80% in each case. Besides, the “Herbicidal activities, Alopecurus japonicus (inhibition rate class)” value in [4] (Dosage 120 g a.i./ha) is recorded as “A (A indicates that the inhibition rate was greater than or equal to 80% to 100%)”. The “Herbicidal activities, Alopecurus myosuroides (inhibition rate class)” value in assay [10] (Dosage 120 g a.i./ha) was “A (A indicates that the inhibition rate was greater than or equal to 80% to 100%)”. Also, the “Herbicidal activities, Eleusine indica (inhibition rate class)” value in [8] (Dosage 120 g a.i./ha) is listed as “A (A indicates that the inhibition rate was greater than or equal to 80% to 100%)”. In assay [9] (Dosage 120 g a.i./ha), the “Herbicidal activities, Leptochloa chinensis (inhibition rate class)” value is “A (A indicates that the inhibition rate was greater than or equal to 80% to 100%)”. Besides, the “Herbicidal activities, Lolium multiflorum (inhibition rate class)” value in [11] (Dosage 120 g a.i./ha) is “A (A indicates that the inhibition rate was greater than or equal to 80% to 100%)”.
On to `C#C[C@@H](C)OC(=O)[C@@H]1C=C[C@H](NC(=O)[C@@]2(C(F)(F)F)CC(c3cc(F)cc(C(F)(F)F)c3)=NO2)C1` [I-521], for which the inhibition at 60 g/ha in assay [3], in assay [5], in assay [6] and in assay [7] was 80 to 100% in each case. In assay [4] (Dosage 120 g a.i./ha), the “Herbicidal activity (inhibition rate class), Alopecurus japonicus” value is “A (A indicates that the inhibition rate was greater than or equal to 80% to 100%)”. Moreover, the “Herbicidal activity (inhibition rate class), Alopecurus myosuroides” value in assay [10] (Dosage 120 g a.i./ha) was “A (A indicates that the inhibition rate was greater than or equal to 80% to 100%)”. For the same compound, the “Herbicidal activity (inhibition rate class), Eleusine indica” value in [8] (Dosage 120 g a.i./ha) is given as “A (A indicates that the inhibition rate was greater than or equal to 80% to 100%)”. The “Herbicidal activity (inhibition rate class), Leptochloa chinensis” value in assay [9] (Dosage 120 g a.i./ha) is recorded as “A (A indicates that the inhibition rate was greater than or equal to 80% to 100%)”. Besides, the “Herbicidal activity (inhibition rate class), Lolium multiflorum” value in assay [11] (Dosage 120 g a.i./ha) is “A (A indicates that the inhibition rate was greater than or equal to 80% to 100%)”.
For `C=C[C@]1(C(=O)N[C@H]2C=C[C@@H](C(=O)OC)C2)CC(c2cc(F)cc(F)c2)=NO1` [CK2, reference compound], the inhibition at 30 g/ha was in the range of 60 to 80% in assay [1], 60 to 80% in assay [2] and 20 to 40% in assay [12].
In the case of `C=C[C@]1(C(=O)N[C@H]2C=C[C@@H](C(=O)O)C2)CC(c2cc(F)cc(F)c2)=NO1` [CK1, reference compound], the figures for the inhibition at 30 g/ha in assay [1], in [2] and in assay [12] were 60 to 80%, 60 to 80% and below 20%, respectively.
